Experimental data: patent US20230310377A1, “METHODS OF TREATING LYSOSOMAL STORAGE DISEASES AND METHODS RELATED THERETO” (RECURSION PHARMACEUTICALS, INC., priority 2020, published 2023)

Assays:
Type in all cases: cell-based
[1] = system: Sandhoff (HEXB) disease and Tay-Sachs (HEXA) disease patient fibroblasts; assay: GM2 ganglioside accumulation (immunofluorescence) in Sandhoff and Tay-Sachs patient fibroblasts; details: Homo sapiens, Fibroblast
Description: (§1) Healthy, Sandhoff (HEXB) disease, and Tay-Sachs (HEXA) disease patient fibroblasts were plated and treated with ruboxistaurin mesylate twice over 17 days. At day 0 cells were seeded. On day 5 the media was changed and initial dose of the compound was delivered. On day 10 the media was changed again and the second dose of the compound was delivered. On day 17 the cells were fixed, immunoflourescence-labeled, and imaged for GM2 (see FIG. 1). […] FIGS. 2A-1 and 3A depict the dose response for two separate experiments. FIGS. 2B-1 and 3B depict mean fluorescence or mean aggregate count for each experiment±SEM of technical replicates, combining 3-5 patient lines for each group. n=12-40 images from two well replicates imaged at 4-sites per well for each line at each dose. Data in each panel represents n=1 experiment performed. FIGS. 2C and 3C depict nuclei per image from the same image sets.
(§2) The same experiment was performed for each of sotrastaurin, enzastaurin, LY2090314, AZD1080, and AZD2858. FIG. 2A-2 depicts the dose response for sotrastaurin. FIG. 2A-3 depicts the dose response for enzastaurin.
EC50 calculations were based on GM2 aggregate counts (not mean fluorescence).
The leftmost concentration in all graphs is DMSO control.

[2] = system: Tay-Sachs (HEXA) disease patient fibroblasts; assay: GM2 ganglioside accumulation in Tay-Sachs (HEXA) patient fibroblasts; details: Homo sapiens, Fibroblast, read-out: GM2 ganglioside ED50 for HEXA
Description: as §1, §2

[3] = system: Sandhoff (HEXB) disease patient fibroblasts; assay: GM2 ganglioside accumulation in Sandhoff (HEXB) patient fibroblasts; details: Homo sapiens, Fibroblast, read-out: GM2 ganglioside ED50 for HEXB
Description: as §1, §2

[4] = system: Sandhoff (HEXB) disease and Tay-Sachs (HEXA) disease patient fibroblasts; assay: Mean cytoplasmic autofluorescence in patient fibroblasts; details: Homo sapiens, Fibroblast, experimentally determined, read-out: autofluorescence ED50
Description: as §1
FIGS. 2D-1 and 2D-2 depict mean cytoplasmic autofluorescence for ruboxistaurin and sotrastaurin, respectively.

[5] = experimentally determined, patient fibroblasts, read-out: GM2 ganglioside ED50
[6] = GM2 aggregate counts (not mean fluorescence), Expmts 1936 and 1925, read-out: ED50 based on GM2 aggregate counts

SMILES	EC50 [1, 5]	EC50 [1, 6]	other results
CN1CCN(c2nc(C3=C(c4c[nH]c5ccccc45)C(=O)NC3=O)c3ccccc3n2)CC1 [Sotrastaurin]	~90 nM	–	–
Cn1cc(C2=C(c3cn(C4CCN(Cc5ccccn5)CC4)c4ccccc34)C(=O)NC2=O)c2ccccc21 [Enzastaurin]	–	–	EC50 [2]: ~265 nM; EC50 [3]: ~550 nM
CN(C)C[C@@H]1CCn2cc(c3ccccc32)C2=C(C(=O)NC2=O)c2cn(c3ccccc23)CCO1 [Ruboxistaurin, (18S)-18-[(dimethylamino)methyl]-17-oxa-4,14,21-triazahexacyclo[19.6.1.17,14.02,6.08,13.022,27]nonacosa-1(28),2(6),7(29),8,10,12,22,24,26-nonaene-3,5-dione]	~300 nM	–	EC50 [4]: ~250 nM
O=C1NC(=O)C(c2cnc3ccccn23)=C1c1cn2c3c(cc(F)cc13)CN(C(=O)N1CCCCC1)CC2 [LY2090314]	–	8.76 nM	–
N#Cc1ccc2[nH]c(O)c(-c3ccc(CN4CCOCC4)cn3)c2c1 [AZD1080]	–	1590 nM	–
